The target of this test is T1, Glycylpeptide N-tetradecanoyltransferase (Candida albicans (strain SC5314 / ATCC MYA-2876), UniProt P30418).
T1 sequence (P30418 whole entry): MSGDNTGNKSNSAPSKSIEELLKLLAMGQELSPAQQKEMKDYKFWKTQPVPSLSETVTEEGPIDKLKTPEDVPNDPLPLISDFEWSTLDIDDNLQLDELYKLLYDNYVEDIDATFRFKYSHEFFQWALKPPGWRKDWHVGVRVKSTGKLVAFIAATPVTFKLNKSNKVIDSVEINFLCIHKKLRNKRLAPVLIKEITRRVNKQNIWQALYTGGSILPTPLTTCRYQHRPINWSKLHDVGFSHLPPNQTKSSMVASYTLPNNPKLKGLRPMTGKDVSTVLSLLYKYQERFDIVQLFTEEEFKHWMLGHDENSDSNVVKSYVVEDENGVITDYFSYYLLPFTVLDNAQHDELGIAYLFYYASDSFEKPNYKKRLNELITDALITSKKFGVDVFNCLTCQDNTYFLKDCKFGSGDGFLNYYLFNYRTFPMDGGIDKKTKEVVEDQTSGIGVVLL
As to the kind of experiment: The Compound was tested for the inhibition potency against Candida albicans N-myristoyltransferase (NMT) and reported as apparent Ki.

On to H-ALYASKLS-NH2, for which the Ki was 15.3 µM.
